For assay [1], the system named is p38α and p38δ mRNA. Nature of the assay: Quantitative real-time PCR in MDA-MB-231 cells. The class given is cell-based. Particulars: 250 nM, 24 hours. On the procedure:
FIGS. 13A, 13B, 13C, and 13D. Exemplary compounds 50 and 46 degrade p38 isoforms in a manner that is rapid, sustained, and proteasome-dependent. (A) MDA-MB-231 cells were either pre-treated or not with the proteasome inhibitor epoxomicin (1 μM) or the neddylation inhibitor MLN4924 (1 μM) for 30 minutes and subsequently treated with either vehicle (DMSO), exemplary compound 50 (250 nM), or exemplary compound 46 (250 nM) for 6 hours. (B) Quantitative real-time PCR was performed after 24 hours of treatment with either vehicle (DMSO), exemplary compound 50 (250 nM), or exemplary compound 46 (250 nM) in MDAMB-231 cells. […]
MDA-MB-231 cells were plated at 3×10^5 cells per well in a 6-well dish, allowed to adhere, and were treated with either vehicle (DMSO) or PROTAC (250 nM) for 24 hours. […] RNA pellet was washed twice with 75% EtOH and allowed to air dry for 15 minutes, after which RNA was dissolved in 25 μL of nuclease-free H2O. cDNA was synthesized from 4 μg of total RNA per condition according to the manufacturer's protocol (Applied Biosystems) and real-time PCR was performed with 800 nM primers, diluted with 4 μL SYBR Green Reaction Mix (Applied Biosystems). qRT-PCR samples were performed and analyzed in triplicate, from two independent experiments. […]
Background: Real-time PCR tracks product formation cycle by cycle.

Assay [2] has as its target T1, His-p38δ (Homo sapiens, UniProt O15264).
T1 construct: encoding a region spanning amino acids 1-365 was PCR-amplified; made in house; host or cells: E. coli BL21-CodonPlus(DE3)-RIPL
T1 sequence (O15264 1-365): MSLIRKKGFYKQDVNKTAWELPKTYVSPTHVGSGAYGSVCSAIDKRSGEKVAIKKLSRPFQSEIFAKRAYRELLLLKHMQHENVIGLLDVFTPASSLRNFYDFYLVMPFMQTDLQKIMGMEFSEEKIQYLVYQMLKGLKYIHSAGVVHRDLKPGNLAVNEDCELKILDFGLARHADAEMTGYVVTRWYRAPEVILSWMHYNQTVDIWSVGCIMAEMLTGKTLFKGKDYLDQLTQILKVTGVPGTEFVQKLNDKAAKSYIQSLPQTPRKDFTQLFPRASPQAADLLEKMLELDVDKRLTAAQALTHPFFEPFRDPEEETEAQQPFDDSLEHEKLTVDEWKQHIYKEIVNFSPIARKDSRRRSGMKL
In words: SPR binary affinity, compound on immobilized His-p38δ. The assay is classed as binding. Particulars: for Kd: His-p38δ immobilized, read-out: PROTAC:p38δ Kd. Here is the method:
FIGS. 16A, 16B, and 16C. SPR curves assessing binary and ternary interactions. […] Equimolar p38δ:PROTAC mixtures were injected onto immobilized GST-VBC and allowed to dissociate overtime. […] See Table 12 for a summary of the binary and ternary affinity and kinetic measurements. […] Next, with the same setup, equimolar p38δ:PROTAC dilutions were successively injected onto immobilized VHL for 60 seconds, prior to monitoring complex dissociation for the remaining 300 seconds. This SPR strategy enabled us to determine effective ternary affinities for a given p38δ:PROTAC:VHL complex and compare the relative affinity change that occurs between VHL:PROTAC when p38δ is present in the mixture. […] This p38δ region was cloned into a pET28a vector containing an N-terminal His6 tag using NheI and BamHI restriction sites. As before, BL21-CodonPlus(DE3)-RIPL E. coli cells (Agilent Technologies) were transformed with pET[…]6-p38delta and were selected in LB medium containing kanamycin (50 μg mL^1), chloramphenicol (15 μg mL^-1), and spectinomycin (50 μg mL^-1) at 37° C. until OD600=0.8. […] Pure fractions of p38δ were pooled, concentrated to 3 mg mL^-1, aliquoted, and flash-frozen before storing at -80° C. SPR experiments were conducted on a Biacore 3000 instrument (GE Healthcare) at room temperature. GST antibody was immobilized through direct amination onto a carboxymethylated dextran surface (CM5) and GST-VBC was captured on the CM5 surface. This prepared surface was equilibrated over three hours in running buffer (10 mM HEPES buffer pH 7.4, 150 mM NaCl, 0.4 mg mL^-1 BSA, 0.005% P20, 2% DMSO). All compounds were prepared in 100% DMSO stock plates with a top concentration of 500 μM in a 3× serial dilution. Exemplary compounds were transferred from the stock plate to the assay plate and diluted into running buffer without DMSO. Equimolar concentration of target protein was added to corresponding compound wells. All exemplary compounds were run as a twelve point-concentration series with a final assay top concentration of 50 μM to measure p38δ:PROTAC and VHL:PROTAC binding and top concentration of 5 μM to measure p38δ:PROTAC:VHL binding. All exemplary compounds were injected for 60 seconds and allowed to dissociate for 300 seconds. Data analysis was performed in Scrubber 2 (BioLogic Software). Blanks from reference flow cell containing immobilized GST-VBC were subtracted to correct for noise and data was solvent-corrected against a standard DMSO curve.

Structures are written as SMILES.

The term Kd denotes the constant that tells how readily two partners part at equilibrium.

As to `COc1cc2c(Oc3ccc(NC(=O)C4(C(=O)Nc5ccc(F)cc5)CC4)cc3F)ccnc2cc1OCCOCCOCCOc1cc(-c2scnc2C)ccc1CNC(=O)[C@@H]1C[C@@H](O)CN1C(=O)[C@H](C(C)C)N1Cc2ccccc2C1=O` [compound 46], the “change in mRNA for either p38 isoform” value in assay [1] is “no significant changes in mRNA”. Moreover, in assay [2], the “loss of affinity for p38δ compared to the PTM (foretinib)” value is on record as “about 2 fold” and the Kd worked out at 550 nM.

Regarding `COc1cc2c(Oc3ccc(NC(=O)C4(C(=O)Nc5ccc(F)cc5)CC4)cc3F)ccnc2cc1OCCCCOCCCCOCC(=O)N[C@H](C(=O)N1C[C@H](O)C[C@H]1C(=O)NCc1ccc(-c2scnc2C)cc1)C(C)(C)C` [compound 50, N-(3-fluoro-4-((7-(4-(4-(2-(((S)-1-((2S,4R)-4-hydroxy-2-((4-(4-methylthiazol-5-yl)benzyl)carbamoyl)pyrrolidin-1-yl)-3,3-dimethyl-1-oxobutan-2-yl)amino)-2-oxoethoxy)butoxy)buto-xy)-6-methoxyquinolin-4-yl)oxy)phenyl)-N-(4-fluorophenyl)cyclopropane-1,1-dicarboxa-mide], in assay [1], the “change in mRNA for either p38 isoform” value was “no significant changes in mRNA”. In assay [2], the “loss of affinity for p38δ compared to the PTM (foretinib)” value was “about 2 fold” and the Kd stood at 500 nM.

Values taken from patent publication US20180353501A1 (Arvinas, Inc., priority 2017, published 2018).
